We go through three substances from PMC7194015, “Proline-Rich Antimicrobial Peptides in Medicinal Maggots of Lucilia sericata Interact With Bacterial DnaK But Do Not Inhibit Protein Synthesis” (Frontiers in Pharmacology, 2020).

One assay deals with T1, bacterial chaperone DnaK (Escherichia coli, UniProt P0A6Y8).
T1 construct: made in house
The experiment in a line: FRET assay, DnaK-binding (fluorescence quenching with DnaK-BHQ10). To be noted: for maximum quenching effect: n = 3; for Kd: N-terminal 5(6)-carboxyfluorescein, C-terminal amide, quenching assay, non-linear regression (SlideWrite v7.01). How it is done:
Lser-stomoxyn, Lser-PRP2, and Lser-PRP3 were synthesized by PANATecs (Tübingen, Germany) at >95% purity with C-terminal amidation (Table 1). For the quenching assay, Lser-PRP2 and Lser-PRP3 were synthesized with N-terminal 5(6)-carboxyfluorescein and C-terminal amidation. DnaK was produced by Michael Zahn ([Knappe et al., 2011]). The Black Hole Quencher 10 succinimidyl ester (BHQ10-NHS ester, > 75% purity) was purchased from BioCat (Heidelberg, Germany).
DnaK (2 mg/ml) was dialyzed against the modifying buffer (20 mM Na2HPO4, 20 mM KH2PO4, 5 mM MgCl2, 150 mM KCl; pH 7.4) before labeling with a 10-fold molar excess of BHQ10-NHS ester ([Kreisig et al., 2011]; [Dobslaff et al., 2012]). Excess BHQ10 was removed by further dialysis and the final DnaK concentration was adjusted to […]. To evaluate the labeling efficiency, we measured BHQ10 absorption at 515 nm, and calculated the ratio of dye to protein (mean labeling degree, nine BHQ10 molecules per DnaK).
We mixed 50 μl of the fluorescein-modified peptides (1.3 nM) with 50 μl of a 1:4 serial dilution series of DnaK-BHQ10 in modification buffer (0.8–13,000 nM) in a solid black 384-well plate and incubated the plates for 2 h as previously described ([Dobslaff et al., 2012]). To calculate the quenching effect, control mixtures (50 μl of the peptide solution and 50 μl of the modification buffer) were recorded five times. We recorded the fluorescence intensity on a Paradigm fluorescence reader using a fluorescence (fluo-rhod) detection cartridge (excitation wavelength = 485 ± 10 nm, emission wavelength = 535 ± 12.5 nm, integration time = 140 ms). The quenching effect was expressed as the percentage of the fluorescence intensity of the control quenched after the addition of DnaK-BHQ10.
Dissociation constants (Kd) were determined using SlideWrite v7.01. The quenching effects were plotted against the DnaK concentration (logarithmic abscissa). Kd values were calculated by non-linear regression using the dose–response logistical transition function of the program [y = a 0 + a 1/(1 + x/a 2) a3].

Assay [1] relates to E. coli JM83 cells carrying plasmid pCH110. The experiment in a line: Bacterial membrane permeabilization assay (β-galactosidase release). The format is cell-based. Here is the method: We tested the activity of the L. sericata AMPs against E. coli JM83, carrying plasmid pCH110 (Pharmacia-Amersham, Piscatway, NJ, USA).
Membrane permeabilization was quantified by measuring the activity of β-galactosidase released from E. coli JM83 cells carrying plasmid pCH110, which encodes a constitutive, cytoplasmic form of the enzyme ([Zdybicka-Barabas et al., 2013]). The peptides were pre-incubated for 15 min at 37°C in 23 μl 20 mM phosphate buffer (pH 6.8) before adding 2 μl of a suspension of mid-logarithmic phase E. coli cells (5 × 10^5 colony forming units, prepared in the same buffer). The final AMP concentrations were 0.0625–2 µM Lser-stomoxyn and up to 50 µM for the Lser-PRPs ([Pöppel et al., 2015]; [Hirsch et al., 2019]). After incubation for 45 min at 37°C, we added 220 μl 20 mM HEPES/150 mM NaCl (pH 7.5) and 5 μl 50 mM p-nitrophenyl-β-D-galactopyranoside. We incubated the samples at 37°C for a further 90 min and then measured the absorbance at 405 nm, which is proportional to the amount of released β-galactosidase. Live bacteria incubated in growth medium as well as dead bacteria after treatment with 5 µM synthetic cecropin B (Sigma-Aldrich) served as control samples. We set the perforation level of dead bacteria to 100%. All assays were performed six times in triplicate for each type of sample.

The next assay deals with E. coli JM83. Briefly: Atomic force microscopy of bacterial cell surface. It is filed as cell-based. To be noted: 90 min at 37°C. Here is the method:
Bacterial samples were prepared for atomic force microscopy (AFM) as previously described ([Zdybicka-Barabas et al., 2012]; [Zdybicka-Barabas et al., 2013]). Briefly, log-phase E. coli JM83 cells (OD600 = 0.2) in 100 µL lysogeny broth were incubated at 37°C for 90 min in the presence of individual or combined AMPs, or without AMPs as a negative control. We used concentrations of 50 μM Lser-PRP2, 50 μM Lser-PRP3, and 0.25 μM Lser-stomoxyn. The samples were centrifuged (8,000 × g, 4°C, 10 min), washed twice with apyrogenic water, resuspended in 5 μl apyrogenic water, applied to mica disks and allowed to dry at 28°C overnight.
The cell surface was imaged using a NanoScope V AFM (Veeco, Plainview, NY, USA) in Peak Force QNM operation mode and a silicon tip NSG 30 with a spring constant of 20 N/m (NT-MDT, Moscow, Russian Federation). The results were processed using Nanoscope Analysis v1.40 (Veeco). Three fields on each mica disk were imaged. The roughness values were measured over the entire bacterial cell surface in 3 × 3 µm areas. The average surface root mean square (RMS) roughness was calculated from 25 fields (300 × 300 nm). Section profiles and 3D images were produced using WSxM v5.0 ([Horcas et al., 2007]).

Assay [2] concerns panel of 114 multi-drug resistant clinical isolates. The arrangement: method as in Hirsch et al., 2019. To be noted: ref Hirsch et al., 2019; cited from earlier work.
In another assay the test system is Gram-negative bacteria. To be noted: ref Pöppel et al., 2015; Hirsch et al., 2019; cited from earlier work. The source says: Several previous investigations have addressed the AMP repertoire of L. sericata. […] More recent studies have characterized the defensin-family AMP lucifensin ([Andersen et al., 2010]; [Čeřovský et al., 2010]; [Čeřovský et al., 2011]) and the antifungal AMP lucimycin ([P ...

Setting [3] is: Figure 2 legend, N-terminal 5(6)-carboxyfluorescein peptide, DnaK-BHQ10.
The mark [4] stands for this setting: N-terminal 5(6)-carboxyfluorescein peptide (1.3 nM) + DnaK-BHQ10 (0.8–13,000 nM), 2 h, 384-well, pH 7.4, sigmoidal curve.

As usually defined, the Kd is the constant that tells how readily two partners part at equilibrium. Read a low Kd as higher affinity.

Ends that are not written are not given here.

T1 sequence (P0A6Y8 whole entry): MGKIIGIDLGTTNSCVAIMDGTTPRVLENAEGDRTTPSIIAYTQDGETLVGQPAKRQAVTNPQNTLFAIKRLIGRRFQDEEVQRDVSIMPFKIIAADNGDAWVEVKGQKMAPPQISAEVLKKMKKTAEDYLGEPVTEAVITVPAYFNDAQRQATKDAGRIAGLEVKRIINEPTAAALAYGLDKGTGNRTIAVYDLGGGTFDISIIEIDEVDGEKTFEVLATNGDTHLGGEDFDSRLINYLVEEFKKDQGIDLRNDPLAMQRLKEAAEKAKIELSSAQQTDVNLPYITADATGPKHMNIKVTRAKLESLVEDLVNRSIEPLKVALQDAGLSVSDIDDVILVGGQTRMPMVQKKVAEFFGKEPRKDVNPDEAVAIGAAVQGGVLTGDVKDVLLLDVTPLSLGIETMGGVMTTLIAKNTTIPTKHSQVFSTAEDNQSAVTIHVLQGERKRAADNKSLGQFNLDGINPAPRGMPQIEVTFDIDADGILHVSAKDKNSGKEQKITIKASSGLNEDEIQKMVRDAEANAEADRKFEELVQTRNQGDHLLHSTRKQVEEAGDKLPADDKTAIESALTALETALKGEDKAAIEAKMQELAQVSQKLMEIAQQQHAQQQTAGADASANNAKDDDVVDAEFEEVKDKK

For “EWRPHGSIGGSGLRPGRPQTLPPQRPRRPDFNGPRHRF-NH2 [Lser-PRP2]”, the values for the maximum quenching effect at bacterial chaperone DnaK (setting [3]) and at bacterial chaperone DnaK (setting [4]) were over 80% and 85–88%, respectively. At bacterial chaperone DnaK, this substance returned a Kd of 140 ± 10 nM.

For “GFRKRFNKLVKKVKHTIKETANVSKDVAIVAGSGVAVGAAMG [Lser-Stomoxyn, Lucilia sericata canonical α-helical antimicrobial peptide, synthesized at >95% purity with C-terminal amidation]”, the bacterial membrane permeabilization was 1% in assay [1] (0.25 µM, abstract); 12% in assay [1] (1 µM, 45 min at 37°C, bacteria killed by 5 µM cecropin B = 100%, n = 6); 40% in assay [1] (2 µM, 45 min at 37°C, bacteria killed by 5 µM cecropin B = 100%, n = 6); “little evidence of permeabilization” in assay [1] (0.0625 or 0.125 µM, 45 min at 37°C, 20 mM phosphate pH 6.8, n = 6); 1–2% in assay [1] (0.25–0.5 µM, 45 min at 37°C, bacteria killed by 5 µM cecropin B = 100%, n = 6). In the assay with E. coli JM83 (0.25 µM, mean ± SD of 25 fields, control 0.174 (± 0.04), ***p ≤ 0.001 vs control, letter a: differs from combination), the Adhesion forces is given as 0.236 (± 0.079)^a*** nN. In addition, the Roughness in the assay on E. coli JM83 (0.25 µM, mean ± SD of 25 fields, control 0.843 (± 0.22), ***p ≤ 0.001 vs control, letter b: differs from combination) is 1.102 (± 0.373)^b*** nm. In addition, the “Young's modulus” value in the assay on E. coli JM83 (0.25 µM, mean ± SD of 25 fields, control 2458 (± 24.52), **p ≤ 0.01 vs control) is given as 2601 (± 32.19)** MPa. In the assay with E. coli JM83 (Lser-stomoxyn 0.25 µM alone), the flagella result is listed as “lost their flagella”. Further, the “cell surface granularity vs controls” value with E. coli JM83 (Lser-stomoxyn 0.25 µM or Lser-PRP2 50 µM alone) was “considerably more granular than that of the controls”. In assay [2], the “activity against clinical isolates” value was “showed activity against clinical isolates of E. coli, Enterobacter spp., Klebsiella spp., Salmonella enterica, Citrobacter freundii, and Acinetobacter spp., as well as multiple isolates of P. aeruginosa”. Further, the antibacterial activity entry with Gram-negative bacteria is recorded as “particularly active against Gram-negative bacteria”.

In the case of “SPFVDRPRRPIQHNGPKPRIITNPPFNPNARPAW-NH2 [Lser-PRP3]”, the maximum quenching effect is reported as over 80% on bacterial chaperone DnaK (setting [3]) and 85–88% on bacterial chaperone DnaK (setting [4]). The dissociation constant (Kd) on bacterial chaperone DnaK came out at 300 ± 6 nM.
